# Laboratory results as given in article PMC9415015, “CK2 Inhibition and Antitumor Activity of 4,7-Dihydro-6-nitroazolo[1,5-a]pyrimidines” (Molecules, 2022).
# How the values were obtained:
# human recombinant CK2α1 = molecular target: T1, human recombinant CK2α1 (Homo sapiens, UniProt P68400); test: CK2 ADP-Glo kinase assay; type: biochemical; settings: for Effect on CK2 activity in initial screening (in words): initial screening at 50 μM
# T1 construct: purchased Promega V4482
# Experimental: Kinase activity was determined using the enzyme system CK2α1 (Promega V4482, Madison, WI, USA) and the ADP-Glo^TM kit (Promega V9101, Madison, WI, USA) in white 96-well plates (Nunc U96 Microwell 267350, Denmark). The reaction was carried out using 50 ng/well of N-GST labeled human recombinant CK2α1, 0.1 µg/µL bovine casein as a substrate, 10 μM ATP in 40 mM Tris buffer solution (pH 7.50) containing 20 mM MgCl2, 0.1 mg/mL of BSA, and 50 μM of DTT. Test compounds were added to 1.25% DMSO (final concentration 0.25%) and preincubated with kinase for 10 min. The reaction was carried out for 60 min at 25 °C in a thermostatically controlled PST-60HL shaker (Biosan. […], Latvia). ATP-dependent luminescence was measured at an integration time of 1000 ms using the Infinite M200 PRO microplate reader (Tecan. Austria). The ATP-competitive inhibitor Staurosporin (CAS 62996–74-1, Alfa Aesar J62837, 99+%) was used as a positive control. The experiments were performed in two parallels.
# [1] = Solubility noted during the cytotoxicity study; settings: cytotoxicity study limited because of it
# A-172 cells = test: MTT test, glioblastoma cells; type: cell-based, human; settings: for Cytotoxicity index IC50 ± SE, A-172: MTT, 72 h incubation
# Experimental: (§1) The studies were carried out on cultured cells of human glioblastoma (A-172, ATCC CRL 1620), human osteosarcoma (Hos, ATCC CRL 1543), human embryonic rhabdomyosarcoma (Rd, ATCC CRL 136), and human embryonic kidney 293 cells (Hek-293, ATCC CRL 1573) obtained from the Shared research facility “Vertebrate cell culture collection” (Institute of Cytology RAS, Saint-Petersburg, Russia). The cells were cultured using DMEM / F-12 medium containing 10% fetal bovine serum at 37°C, 5% CO2, and 98% humidity. Subculturing was performed using 0.25% trypsin solution when the culture reached ≥90% confluency.
# (§2) The compounds were dissolved in DMSO. The solutions were diluted with DMEM/F-12 culture medium with 10% fetal bovine serum to the studied concentrations: 8, 16, 32, 64, 128, 256, 512, and 1024 µM. […] Cisplatin (cPt) was used as a positive control.
# (§3) Cells were seeded in 96-well plates at a concentration of 4 × 10^3 cells per well. After 24 h, test compounds were added to the wells in a given concentration range. Then the cells were incubated for 72 h, after which a solution of MTT (3-(4,5-dimethyl-2-thiazolyl)-2,5-diphenyl-2H-tetrazolium bromide) was added to the cultures at 20 µL (5 mg/mL) to the well. After 2.5 h, the medium was removed from the wells and 200 µL of a mixture of DMSO/i-PrOH 1/1 was added. Optical density was measured on a plate spectrophotometer at a wavelength of 570 nm.
# (§4) Statistical data processing was carried out in the RStudio program (Version 1.4.1106 © […] RStudio, PBC, Boston, MA, USA) using the R package (version 4.1.2). The cytotoxicity index (IC50) was calculated by plotting dose–response curves using the “drc” package.
# Rd cells = test: MTT test, embryonic rhabdomyosarcoma cells; type: cell-based, human; settings: for Cytotoxicity index IC50 ± SE, Rd: MTT, 72 h incubation
# Experimental: as §1, §2, §3, §4
# Hos cells = test: MTT test, osteosarcoma cells; type: cell-based, human; settings: for Cytotoxicity index IC50 ± SE, Hos: MTT, 72 h incubation
# Experimental: as §1, §2, §3, §4
# Hek-293 cells = test: MTT test, human embryonic kidney cells; type: cell-based; settings: 72 h incubation
# Experimental: as §1, §2, §3, §4
# [2] = tested on: A-172, Rd, Hos and Hek-293 cells; test: MTT test, all four cell lines together; type: cell-based; settings: Homo sapiens, read-out: IC50 in all cases
# Experimental: as §1, §2
# (§5) Cells were seeded in 96-well plates at a concentration of 4 × 10^3 cells per well. After 24 h, test compounds were added to the wells in a given concentration range. […] Optical density was measured on a plate spectrophotometer at a wavelength of 570 nm.
# as §4
# [3] = tested on: tumor cells A-172, Rd, and Hos; test: MTT test, tumor cell lines together; type: cell-based; settings: Homo sapiens, A 172, MTT, across A-172, Rd, 50 µM bound holds 'mostly'
# Experimental: as §1, §2, §5, §4
# T1 sequence (P68400 whole entry): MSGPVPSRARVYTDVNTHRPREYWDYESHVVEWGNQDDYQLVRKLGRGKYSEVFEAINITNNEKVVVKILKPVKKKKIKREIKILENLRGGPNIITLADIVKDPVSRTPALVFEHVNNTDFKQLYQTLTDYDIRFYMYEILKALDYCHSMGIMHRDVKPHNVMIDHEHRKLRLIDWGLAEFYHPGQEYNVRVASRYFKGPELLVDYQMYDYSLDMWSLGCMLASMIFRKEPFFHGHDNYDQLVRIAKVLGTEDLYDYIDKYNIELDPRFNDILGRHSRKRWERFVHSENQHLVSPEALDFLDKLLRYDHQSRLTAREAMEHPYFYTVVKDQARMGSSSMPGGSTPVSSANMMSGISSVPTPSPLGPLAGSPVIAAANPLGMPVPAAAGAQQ
Effect on CK2 activity in initial screening (in words) (human recombinant CK2α1),IC50 [3] [µM],Structure (SMILES),Solubility (in words) [1],"inhibition at 50 µM (human recombinant CK2α1; 50 μM compound, 10 μM ATP, n.a. = not active, read-out: CK2 Inhibition at 50 μM, m ± SD (%)) [%]","Cytotoxicity index IC50 ± SE, A-172 (A-172 cells) [µM]","Cytotoxicity index IC50 ± SE, Rd (Rd cells) [µM]","Cytotoxicity index IC50 ± SE, Hos (Hos cells) [µM]","Cytotoxicity index IC50 ± SE, Hek-293 (Hek-293 cells) [µM]",melting point,IC50 [2] [µM],Selectivity ratio SR (A-172) (A-172 cells; normal/cancer cell (Hek-293 vs A-172)),Selectivity ratio SR (RD) (Rd cells; normal/cancer cell (Hek-293 vs Rd)),Selectivity ratio SR (HOS) (Hos cells; normal/cancer cell (Hek-293 vs Hos))
paradoxically enhance CK2 activity,,"O=[N+]([O-])C1=CNc2ccnn2C1c1ccccc1 (stereo not shown) [Compound 5a, 6-Nitro-7-phenyl-4,7-dihydropyrazolo[1,5-a]pyrimidine]",low solubility,,,,,,,,,,
,,"CCC1=C([N+](=O)[O-])C(c2ccc(OC)cc2)n2ncc(C#N)c2N1 (stereo not shown) [Compound 5i, 3-Cyano-5-ehtyl-6-Nitro-7-(4ʹ-metoxyphenyl)-4,7-dihydropyrazolo[1,5-a]pyrimidine]",,3.66 ± 37.6,145.19 ± 8.96,105.10 ± 10.70,88.44 ± 5.85,69.52 ± 8.69,249 °C (dec.),,,,
,,"CCC1=C([N+](=O)[O-])C(c2ccc(O)c(OC)c2)n2ncc(C#N)c2N1 (stereo not shown) [Compound 5j, 3-Cyano-5-Ethyl-6-nitro-7-(3ʹ-methoxy-4ʹ-hydroxyphenyl)-4,7-dihydropyrazolo[1,5-a]pyrimidine]",,,566.09 ± 17.12,673.44 ± 20.70,522.38 ± 16.16,581.39 ± 43.90,,> 400,,,
paradoxically enhance CK2 activity,,"O=[N+]([O-])C1=CNc2ncnn2C1c1ccccc1 (stereo not shown) [Compound 6a, 6-Nitro-7-phenyl-4,7-dihydro-1,2,4-triazolo[1,5-a]pyrimidine]",,,434.08 ± 18.02,448.21 ± 22.53,542.85 ± 21.45,1131.79 ± 77.86,,> 400,,,
paradoxically enhance CK2 activity,≤ 50,"CC1=C([N+](=O)[O-])C(c2ccccc2)n2nc(C(F)(F)F)nc2N1 (stereo not shown) [Compound 6d, 5-Methyl-6-nitro-7-phenyl-2-trifluoromethyl-4,7-dihydro-1,2,4-triazolo[1,5-a]pyrimidine]",,,27.49 ± 1.67,37.28 ± 3.77,23.31 ± 1.84,50.07 ± 4.43,233 to 235 °C,,1.8,1.3,2.1

Structure (SMILES),Effect on CK2 activity in initial screening (in words) (human recombinant CK2α1),IC50 [3] [µM],Solubility (in words) [1],"inhibition at 50 µM (human recombinant CK2α1; 50 μM compound, 10 μM ATP, n.a. = not active, read-out: CK2 Inhibition at 50 μM, m ± SD (%)) [%]","Cytotoxicity index IC50 ± SE, A-172 (A-172 cells) [µM]","Cytotoxicity index IC50 ± SE, Rd (Rd cells) [µM]","Cytotoxicity index IC50 ± SE, Hos (Hos cells) [µM]","Cytotoxicity index IC50 ± SE, Hek-293 (Hek-293 cells) [µM]",melting point,IC50 [2] [µM],Selectivity ratio SR (A-172) (A-172 cells; normal/cancer cell (Hek-293 vs A-172)),Selectivity ratio SR (RD) (Rd cells; normal/cancer cell (Hek-293 vs Rd)),Selectivity ratio SR (HOS) (Hos cells; normal/cancer cell (Hek-293 vs Hos))
"CC1=C([N+](=O)[O-])C(c2ccc([N+](=O)[O-])cc2)n2nccc2N1 (stereo not shown) [Compound 5c, 6-Nitro-5-methyl-7-(4ʹ-nitrophenyl)-4,7-dihydropyrazolo[1,5-a]pyrimidine]",paradoxically enhance CK2 activity,,low solubility,,,,,,,,,,
